Experimental data taken from PMC12040169 (PLOS Biology, 2025).

assay: in vitro; conditions: human, hela cells, % viability

| SMILES | viability at 28.5 h, 10 µM [%] |
| --- | --- |
| CC1CCN(S(=O)(=O)c2ccc(NC(=O)CCN3C(=O)c4ccccc4C3=O)cc2)CC1 [CBK265572] | 98.8 |
| CCN(Cc1cccc(C(=O)O)c1)Cc1noc(C2CCC2)n1 [CBK307708] | 102 |
| Cn1cc(C(O)CNC(=O)NCCc2csc3ccccc23)cn1 (stereo not shown) [CBK305219] | 95.2 |
| COc1ccc(OC(=O)c2cccc(F)c2)c(C(C)=O)c1 [CBK088044] | 89 |
| CN(C)CCCNC(=S)Nc1ccc(Cl)cc1Cl [CBK264183] | 92.5 |
| COc1ccc(C(=O)N2CCN(Cc3ccccc3)CC2)c(OC)n1 [CBK200169] | 99.2 |
| Cc1cccc(OCCCC(=O)Nc2ccc(S(N)(=O)=O)cc2)c1C [CBK267963] | 90.8 |
| COCCc1nc(C2CCC2)n(Cc2ccccc2C)n1 [CBK307238] | 91.8 |
| O=C(c1ccc2c(c1)N(Cc1ccc(F)cc1)C(=O)CO2)c1cccs1 [CBK286410] | 92.3 |
| O=C1COc2ccccc2C/C=C/CC2(CCCNC2)CN1 (stereo not shown) [CBK292029] | 91.5 |
| Cc1cccn2cc(C(=O)NCCCn3cccn3)nc12 [CBK281749] | 75.3 |
| Cc1ccc(C#N)c(NCc2ccccc2CN2CCCC2CO)n1 (stereo not shown) [CBK304076] | 75.5 |
| CC1(C)C[C@H](NC(=O)c2cccs2)[C@@]2(CCC(=O)N3CCCC3)CC[C@](C)(O)C[C@@H]12 [CBK289042] | 122 |
| O=c1c2ccccc2nc(COc2ccccc2)n1O [CBK288482] | 108 |
| COc1ccc2oc(C(=O)NCCN3CCOCC3)c(C)c2c1OC [CBK269913C] | 86.8 |
| COc1ccc(CCN(Cc2ccc(Cl)c(Cl)c2)C(=O)NCCCSC)cc1OC [CBK158758] | 91.1 |
| CCNS(=O)(=O)c1ccc(CCC(=O)Nc2ccc3c(c2)OCO3)cc1 [CBK268367] | 101 |
| COC(=O)c1ccsc1NS(=O)(=O)c1cc(F)c(Br)cc1F [CBK039068] | 96.5 |
| O=S(=O)(Cc1cccc(C(F)(F)F)c1)c1csc2ccnc(N3CCNCC3)c12 [CBK039166C] | 92 |
| CN(C)c1ccc(Nc2cc(-c3cccc4ccccc34)ncn2)cc1 [CBK037835] | 46.8 |
| CC(=O)N1CC[C@H]2NC(=O)CNC(=O)C3(CCCC[C@H]2C1)CCN(Cc1ccc(Cl)cc1)CC3 [CBK292119] | 90.5 |
| CN1CCN(C(=O)CCc2nc(-c3ccc(Cl)cc3)no2)CC1 [CBK268304] | 117 |
| CCOCc1nc2c(c(NCc3cc(C)on3)n1)CCN(C(C)=O)CC2 [CBK307512] | 87.4 |

| SMILES | viability at 28.5 h, 10 µM [%] |
| --- | --- |
| COc1ccc(NC(=O)CCC(=O)O)c(OC)c1 [CBK265451] | 104 |
| CC(C(=O)N[C@H]1C2CCCCC2[C@@H]1c1ccccc1)N1CCOCC1 (stereo partly shown) [CBK282964] | 86.4 |
| CSc1ncc(Cl)c(C(=O)Nc2sc3c(c2C(=O)NCc2ccco2)CCC3)n1 [CBK268991] | 97.2 |
| Cc1cc(S(=O)(=O)NCCC#N)c(C)cc1Cl [CBK043680] | 113 |
| N#CC1=C(N)Oc2[nH]nc(-c3cccs3)c2C1c1ccco1 (stereo not shown) [CBK266088] | 99 |
| CC(C)c1ccc(S(=O)(=O)NCc2csc3ccccc23)cc1 [CBK044662] | 96.6 |
| Cc1ccc(C2=NO[C@@](CC(=O)O)(C(=O)Nc3ccc4c(c3)OCCO4)C2)cc1 [CBK286653] | 85.1 |
| Cc1ccc2nc(-c3ccc(N4C(=O)CC(N5CCC(N6CCCCC6)CC5)C4=O)cc3)sc2c1 (stereo not shown) [CBK265315] | 114 |
| O=C(O)c1ccc(Cl)c(S(=O)(=O)Nc2ccc(I)cc2)c1 [CBK296132] | 83.2 |
| CCCC(=O)N1C2CCC1c1cnc3cc(-c4ccco4)nn3c1C2 (stereo not shown) [CBK284383] | 96.6 |
| Cc1cc(-c2nccnc2NCc2cccc(Cl)c2)cc(C)c1O [CBK036646] | 87.4 |
| O=C(O)C1CCN(C(=O)Nc2ccccc2Cl)CC1 [CBK161407] | 106 |
| CCN(CC)CCN1C(=O)C(O)=C(C(=O)c2cc3ccccc3o2)C1c1ccccn1 (stereo not shown) [CBK266413] | 86.1 |
| COCCCOc1cc(NC(C)C)ncn1 [CBK115885] | 92.6 |
| Cc1cc(C)cc(/N=C2\NC(=O)C(CC(=O)O)S2)c1 (stereo not shown) [CBK286878] | 91.4 |
| C=CCn1nnc(NC(=O)COc2ccccc2)n1 [CBK288131] | 108 |
| O=C(CSc1nccc2ccccc12)NC1CCCOC1 (stereo not shown) [CBK282677] | 85.2 |
| CS(=O)(=O)c1ccc(-c2ccc(C(=O)N3CCN(Cc4ccc(F)c(F)c4)CC3)nc2)cc1 [CBK160485] | 87.4 |
| C=CCn1c(S)nnc1CCSCc1ccccc1 [CBK268849] | 95.1 |
| CCC(NC1CCc2nc(C)cn2C1)c1ccccc1O (stereo not shown) [CBK306012] | 85.8 |
| COc1ccc(S(=O)(=O)Nc2cccc(C(=O)O)c2)cc1C(=O)O [CBK264069] | 86.8 |
| CCOC(=O)C(NC(=O)c1cn(C)cn1)c1cccc(C)c1C (stereo not shown) [CBK304098] | 107 |
| CC1CCCCN1CC(=O)Nc1ccccc1Oc1ccccc1 (stereo not shown) [CBK023182C] | 95.1 |

| SMILES | viability at 28.5 h, 10 µM [%] |
| --- | --- |
| COc1ccccc1CC(=O)N(Cc1nc(-c2cccc(C)c2)no1)C(C)C [CBK269345] | 95.7 |
| CC1(N2CCOCC2)CC2(O)C(=[N+]1[O-])CCc1c2no[n+]1[O-] (stereo not shown) [CBK261516] | 90.5 |
| Cc1cccc(S(=O)(=O)N2CCN(C)CC2)c1 [CBK097893] | 93.6 |
| c1csc(C2NN=C3C4CCN(CC4)C32)c1 (stereo not shown) [CBK021915] | 91.5 |
| Nc1ncc(-c2cncnc2)nc1NC1CC1 [CBK063869] | 101 |
| CCCC(=O)c1ccc(S(=O)(=O)N2CCN(Cc3ccc4cccc(O)c4n3)CC2)cc1 [CBK063158] | 102 |
| CCCCc1cc(C[C@@H]2C[C@H](NC(=O)N3CCOCC3)C2(C)C)no1 [CBK289257] | 87.9 |
| O=C(NCCn1nc(-c2ccco2)ccc1=O)c1ccccc1F [CBK283742] | 92.5 |
| Cc1cc(C(=O)O)c2[nH]c3c(c2c1)CCCC3 [CBK028885] | 95.5 |
| CSc1nc(NC(=O)C2CCCO2)cc(N2CCNCC2)n1 (stereo not shown) [CBK026740T] | 90.5 |
| CCCn1ccnc1CNc1nc2c(s1)c(C)nn2C [CBK307254] | 84.3 |
| O=C(O)c1ccc2[nH]c(=O)[nH]c2c1 [CBK032631] | 81.3 |
| O=[N+]([O-])c1ccc(Sc2nnc(COc3ccccc3)n2-c2ccccc2)nc1 [CBK265041] | 85.8 |
| O=C(C1CCCC1)N1CCCC(c2cc3cccnc3[nH]2)C1 (stereo not shown) [CBK284979] | 105 |
| Oc1ccc2ccccc2c1/C=N/Nc1nnn[nH]1 [CBK262028] | 106 |
| Cc1cccc(CN(CC(C)(C)CN)C(=O)Nc2ccccc2C(F)(F)F)n1 [CBK002409C] | 105 |
| COc1cccc2sc(NC(=O)Cc3ccccc3)nc12 [CBK149284] | 103 |
| COc1cc2c(cc1OC)C(C)N(C(=O)Nc1ccc3c(c1)OCCO3)CC2 (stereo not shown) [CBK086204] | 94.8 |
| CN(C)CC(=O)N/N=C/c1ccsc1 [CBK008256C] | 110 |
| COc1ccnc(N2CCN(C(=O)c3cc(C)nn3C)CC2)n1 [CBK305967] | 83.7 |
| CCOc1ccc(-n2c(SCC(=O)Nc3cc(C(=O)O)ccc3Cl)nc3ccccc3c2=O)cc1 [CBK297512] | 109 |
| CCc1onc(C)c1C(=O)NC(Cc1ccsc1)c1nccs1 (stereo not shown) [CBK285142] | 94 |
| CC1(C)OCc2nc(C(O)C(C)(C)C)ccc2O1 (stereo not shown) [CBK005386] | 98.4 |

| SMILES | viability at 28.5 h, 10 µM [%] |
| --- | --- |
| O=C(CSCc1cccc(Cl)c1)Nc1cccnc1 [CBK264114] | 95.9 |
| O=S(=O)(Nc1cccc2[nH]ccc12)c1ccc(Br)cc1F [CBK153547] | 80.6 |
| CC(c1ccncc1)N1Cc2cccc(C(=O)O)c2C1=O (stereo not shown) [CBK291137] | 97.4 |
| CCCc1cc(CNC(=O)c2cc(C3CC3)nn2C)on1 [CBK282048] | 102 |
| O=C(O)CCC(=O)Nc1cccc2ccccc12 [CBK260889] | 112 |
| CS(=O)(=O)NC1c2cccc3cccc(c23)C1N1CCOCC1 (stereo not shown) [CBK265845] | 102 |
| N=c1n(CCN2CCCCC2)c2ccccc2n1CC(=O)c1cccc([N+](=O)[O-])c1 [CBK263481B] | 103 |
| CC(=O)N1CCN(C(C(=O)O)c2cn(Cc3ccccc3)c3ccc(C(=O)O)cc23)CC1 (stereo not shown) [CBK286648] | 79.6 |
| O=C(O)c1[nH]c2ccccc2c1NS(=O)(=O)c1cc(F)c(Br)cc1F [CBK049885] | 62.8 |
| COc1ncccc1CNC(=O)Cn1ccc(=O)[nH]c1=O [CBK305596] | 99.9 |
| CC(=O)c1ccc(-c2nc(-c3occc3C=O)cnc2N)cc1 [CBK064081] | 89.9 |
| CC(C)(C)c1ccc(C(=O)NCCNC(=O)c2nonc2N)cc1 [CBK268869] | 89.5 |
| COc1ccc(Cl)c(Cn2c(NCc3ccccn3)nc3c2c(=O)n(C)c(=O)n3C)c1 [CBK268965] | 97.6 |
| CC(C(=O)NC1CCCN(CC(F)(F)F)C1)n1cnc2ccccc21 (stereo not shown) [CBK304185] | 96.6 |
| O=S(=O)(c1ccccc1)c1nc(N2CCNCC2)cn2ccnc12 [CBK154875T] | 94.7 |
| CS(=O)(=O)N1CC2(CCN(Cc3cccnc3)CC2)c2ccccc21 [CBK084006] | 98.1 |
| Cc1cc(Sc2nc[nH]n2)c2c(Cl)ccc(Cl)c2n1 [CBK025959] | 109 |
| Cc1cc(C)c2nc(-c3ccccn3)cc(C(=O)Nc3cccc(Cn4cccn4)c3)c2c1 [CBK267723] | 90.4 |
| O=C(O)CNC(=O)CN1C(=O)c2ccc(C(=O)O)cc2C1=O [CBK264080] | 90.8 |
| OCc1ccccc1-c1cncc(N2CCN(c3ccncc3)CC2)n1 [CBK065208] | 113 |
| C=C(C)Cn1c(Cc2ccccc2)nnc1SCC(C)C [CBK200082] | 102 |
| Cc1cc2c(cc1S(=O)(=O)NCc1ccccc1)NC(=O)CO2 [CBK270159] | 85.2 |
